In patent US12594261B2, “Use of heterocyclic derivatives with cardiomyocyte proliferation activity for treatment of heart diseases” (SHANGHAI EAST HOSPITAL (EAST HOSPITAL, TONGJI UNIVERSITY …, priority 2019, dated 2026):
Entries after “also recorded” stand apart in the source; their conditions may differ. Where two headings read alike, the source gives them in different places.

Tests used:
human GSK3 beta = target: T1, human GSK3 beta (Homo sapiens, UniProt P49841); experiment: GSK3 beta enzyme assay (ADP-Glo); assay type: biochemical
T1 construct: Recombinant full-length human GSK3 beta (expressed in Sf9 insect cells with an N-terminal His tag); His tag (N); purchased SignalChem G09-10H; host or cells: Sf9 insect cells
Procedure: 1. GSK3 Beta Enzyme Assay
The ability of compounds to inhibit human GSK3 beta kinase activities was determined using a commercially available ADP-Glo™ Kinase Assay kit (Promega, Cat #V9102) according to the manufacturer's protocol. The ADP-Glo™ Kinase Assay is a luminescent ADP detection assay that provides a universal, homogeneous, high-throughput screening method to measure kinase activity by quantifying the amount of ADP produced during a kinase reaction. The ADP-Glo™ Kinase Assay can be used to monitor the activity of virtually any ADP-generating enzymes (e.g., kinases or ATPases).
Recombinant full-length human GSK3 beta (expressed in Sf9 insect cells with an N-terminal His tag) was purchased from SignalChem (SignalChem, Cat #G09-10H). The GSK3 substrate peptide (sequence: […](pS)EDEEE) was purchased from SignalChem (SignalChem, Cat #G50-58). This assay, run in a 384-well plate format, is a generic method for measuring kinase activities using an ADP-Glo Kinase Assay Kit. The basic assay procedure involves two steps: (1) Enzymatic step: inhibitors are incubated with the kinase and then ATP (included in the ADP-Glo Kinase Assay Kit) and the GSK3 substrate peptide are added to start the enzymatic reaction; (2) Detection step: after the kinase reaction, first ADP-Glo™ Reagent is added to terminate the kinase reaction and deplete the remaining ATP. Second, the Kinase Detection Reagent is added to simultaneously convert ADP to ATP and allow the newly synthesized ATP to be measured using a luciferase/luciferin reaction. The light generated is measured using a luminometer.
Briefly, GSK3 beta (4 nM) in the enzymatic buffer solutions (40 mM Tris, 7.5, 20 mM MgCl2, 0.1 mg/ml BSA, 50 μM DTT) were mixed with various concentrations of inhibitors (dissolved in 100% DMSO). These solutions were incubated for 30 minutes at 25° C., and subsequently a mixture of substrate peptide and ATP was added with the final peptide and ATP concentrations at 13 μM and 25 μM, respectively. The final reaction mixture of enzyme-substrate-ATP-compound was incubated for 60 minutes at 25° C.
Afterwards ADP-Glo™ Reagent was added and the mixture was incubated at 25° C. for 60 minutes. Then Kinase Detection Reagent was added and the final mixture was incubated at 25° C. for 60 minutes. The luminescence signal of the final solution was measured on an Envision instrument (PerkinElmer). The percent (%) inhibition at each concentration of a compound is calculated relative to the luminescence signal in the Max and Min control wells contained within each assay plate. […] The concentrations and percent inhibition values for a test compound are plotted and the concentration of the compound required to achieve 50% inhibition (IC50) is determined with a four-parameter logistic dose response equation.

[1] = system: neonatal rat ventricular myocytes (NRVMs); experiment: Myocyte proliferation assay (EdU) in neonatal rat ventricular myocytes; assay type: cell-based; settings: for activation at 1 µM / activation at 3 µM / activation at 10 µM: Rattus norvegicus, Ventricular myocyte, growth relative to blank myocyte growth without compound added; for activation at 1 µM: 1 uM compound; for activation at 3 µM: 3 uM compound; for activation at 10 µM: 10 uM compound
Procedure: 1. Isolation of and Culture Neonatal Rat Ventricular Myocytes (NRVMs)
Ventricles from neonatal rats were separated from the atria, cut into small pieces (about 2×2 mm^2) and then dissociated in Ca^2+-free HBSS containing 0.125 mg ml-1 trypsin (Gibco), 10 μg ml-1 DNase II (Sigma) and 0.1 mg ml-1 collagenase type IV (Sigma). The digestion was carried out under constant stirring at 37° C. for 5 min. The supernatant was collected with FBS (Gibco) after each digestion period. After digestion, the collected supernatant was centrifuged at 1000 g for 10 min at room temperature, and then cell pellets were resuspended in DMEM (Gibco) supplemented with 10% FBS and with 100 uM 5-bromo-2′-deoxyuridine (Sigma). The resuspended cells were passed through a cell strainer ([…], BD Falcon) and seeded onto 100-mm plastic dishes for 2 h at 37° C. in a 5% CO2 to remove fibroblasts, the supernatant was then collected and plated onto 1% gelatin (Sigma)-coated dishes. 24 h after the seeding, the medium was changed to DMEM (Gibco) containing 2% FBS (Gibco), 1% insulin-transferrin-selenium (ITS; Gibco), 1% Penicillin-Streptomycin (Gibco). After 24 hours of low serum culture, remove the medium with DMEM (Gibco) containing 6% FBS (Gibco), 1% insulin-transferrin-selenium (ITS; Gibco), 1% Penicillin-Streptomycin (Gibco), different concentrations of compounds (the compounds were pre-diluted in the medium and the drug concentration was 10 uM, 3 uM, 1 uM, fully mixed). After 36 h add Edu substrate (Invitrogen) according to the manufacturer's guidelines, and then after 12 h cell can be used.
2.1. Immobilization: Remove the medium and fix the cells with […] in 200 ul (whichever is covered) for 15 min and wash the cells twice with 500 ul of PBS for 5 min each time.
2.2. Broken membrane: Add 200 ul of 0.3% Triton-X 100 (diluted in PBS) to each well, incubate for 10-15 min at room temperature (the time should not be too long), and wash the cells twice with 500 ul of PBS for 5 min each time.
2.3. Blocking: Add 200 ul of 10% normal goat serum (diluted with 0.1% PBST) to each well, incubate for 1 h at room temperature, and wash twice with 500 ul of 0.1% PBST for 5 min each time.
2.4. Primary antibody: dilute the primary antibody (abcam, ab8295) to blocking solution at a ratio of 1:200, add 100 ul per well, incubate for 1 h at room temperature (may be slightly longer than 2-3 h), wash the cells twice with 500 ul 0.1% PBST for 5 min each time.
2.5. Secondary antibody: Dilute the fluorescently labeled secondary antibody (abcam, ab150117) into blocking solution at a ratio of 1:200, add 100 ul per well, incubate for 1 h at room temperature (the time should not be too long), wash the cells twice with 0.1% PBST for 5 min each time, pay attention to the whole process. Protected from light.
2.6. Edu staining (Invitrogen C10338)
2.6.1 Prepare Click-iT® reaction cocktail according to Table 3. It was important to add the ingredients in the order listed in the table; otherwise, the reaction would not proceed optimally. Use the Click-iT® reaction cocktail within 15 minutes of preparation.
2.6.2 Add 0.1 mL of Click-iT® reaction cocktail to each well containing a coverslip. Rock the plate briefly to ensure that the reaction cocktail is distributed evenly over the coverslip.
2.6.3 Incubate the plate for 30 minutes at room temperature, protected from light.
2.6.4 Remove the reaction cocktail, then wash the cells twice with 0.1% PBST for 5 min each time.
2.7. DAPI staining: DAPI stain was diluted to PBS at a ratio of 1:1000, 100 ul per well, incubated for 30 min at room temperature, and the cells were washed twice with PBS for 5 min each.
We used Molecular Devices' Image Xpress Micro Confocal for high-throughput photo and data analysis.

[2] = system: Myocardial Infarction (left coronary artery ligation); experiment: In vivo test, myocardial infarction (heart infarct) model; set-up: species or system C57/BL6 mice
Procedure: 6-week-old C57/BL6 mice were anesthetized with 1% isoflurane in a chamber. The mice were placed in a left supine position on a heating pad (37° C.), and the heart was exposed via thoracotomy at the fourth left intercostal space. The pericardium was then opened, and the left coronary artery was permanently ligated with a 7-0 suture. Ligation was considered successful when the left ventricle became pale. From one week after surgery, the compound L41 or control solvent were injected via tail vein every other day. The mice were then euthanized after 6 weeks of injection, and the hearts were subjected to histology.
2. Injury Region Division
The cardiac tissue regions used for image characterization are described as the whole heart, infarct zone (left ventricle free wall), border zone (left ventricle anterior and posterior walls), or distal zone (interventricular septum).
For histology studies, hearts were collected at the indicated time points. […]
Hearts were sectioned at a thickness of 8 μm, and slides were created with 5 sections per slide. […] Scar size was quantified by examining serial sections from the apex to the ligation site and calculating the average percent fibrotic area of the total area using Image J software based on Masson's trichrome staining.

T1 sequence (P49841 whole entry): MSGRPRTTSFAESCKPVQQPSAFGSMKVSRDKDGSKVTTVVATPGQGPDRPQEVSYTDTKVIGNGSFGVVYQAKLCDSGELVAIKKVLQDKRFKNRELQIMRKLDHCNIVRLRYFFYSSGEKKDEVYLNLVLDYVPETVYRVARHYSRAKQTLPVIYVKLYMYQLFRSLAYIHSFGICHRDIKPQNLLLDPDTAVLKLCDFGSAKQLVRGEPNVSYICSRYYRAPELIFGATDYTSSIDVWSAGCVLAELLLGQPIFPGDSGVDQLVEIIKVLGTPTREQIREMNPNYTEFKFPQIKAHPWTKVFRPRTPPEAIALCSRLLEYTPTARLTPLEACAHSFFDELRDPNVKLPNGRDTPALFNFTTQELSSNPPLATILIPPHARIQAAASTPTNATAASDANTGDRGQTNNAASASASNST

Structure (SMILES)	IC50 (human GSK3 beta; read-out: GSK3b IC50) [µM]	activation at 1 µM [1] [%]	activation at 3 µM [1] [%]	activation at 10 µM [1] [%]	IC50 (human GSK3 beta) [µM]	myocyte growth / proliferation (EDU proliferation index), in words ([1]; neonatal rat cardiomyocytes, FIGS. 3-5)	cardiomyocyte proliferation in the heart infarct model ([2]; mouse, in vivo)	infarct size in the heart infarct model ([2]; tail vein injection every other day from one week after surgery, 6 weeks, FIG. 6 and 7)
CCN(C1=N/C(=C\c2ccc3c(c2)OCO3)C(=O)N1)c1ccccc1 [TJU-B182, (Z)-5-(benzo[d][1,3]dioxol-5-ylmethylene)-2-(ethyl(phenyl)amino)-3,5-dihydro-4H-imidazol-4-one]	> 10	10 to 50	10 to 50	10 to 50	–	–	–	–
CN(C1=N/C(=C\c2ccc3c(c2)OCO3)C(=O)N1)c1ccccc1 [TJU-B115, (Z)-5-(benzo[d][1,3]dioxol-5-ylmethylene)-2-(methyl(phenyl)amino)-3,5-dihydro-4H-imidazol-4-one]	> 10	< 10	> 50	10 to 50	–	–	–	–
CN1C(=O)/C(=C/c2ccc3c(c2)OCO3)N=C1N(C)c1ccccc1 [TJU-B116, (Z)-5-(benzo[d][1,3]dioxol-5-ylmethylene)-3-methyl-2-(methyl(phenyl)amino)-3,5-dihydro-4H-imidazol-4-one]	> 10	< 10	< 10	< 10	–	–	–	–
CC(=O)N(C1=N/C(=C\c2ccc3c(c2)OCO3)C(=O)N1)c1ccccc1 [TJU-B183, (Z)—N-(4-(benzo[d][1,3]dioxol-5-ylmethylene)-5-oxo-4,5-dihydro-1H-imidazol-2-yl)-N-phenylacetamide]	–	< 10	10 to 50	> 50	> 10	–	–	–
O=C1/C(=C/c2ccc3c(c2)OCO3)N=C(N(Cc2ccccc2)c2ccccc2)N1Cc1ccccc1 [TJU-B076, (Z)-5-(benzo[d][1,3]dioxol-5-ylmethylene)-3-benzyl-2-(benzyl(phenyl)amino)-3,5-dihydro-4H-imidazol-4-one]	> 10	< 10	< 10	> 50	–	–	–	–
O=C1NC(Nc2ccccc2)=N/C1=C\c1ccc2c(c1)OCO2 [Example L41, (Z)-5-(benzo[d][1,3]dioxol-5-ylmethylene)-2-(phenylamino)-3,5-dihydro-4H-imidazol-4-one]	–	< 10	< 10	< 10	–	potent agonist for promoting myocyte growth or proliferation; also recorded: promotes myocyte growth; also recorded: promotes proliferation of neonatal rat cardiomyocytes; also recorded: potent activity	superior cardiomyocyte proliferation activity	reduction in infarct size
